“And” between values parts separate entries of the source, which are not always exact repeats. Equal values may be shown once.
Key:
[1] = target: T1, And-1 (Homo sapiens, UniProt O75717); assay: Western blot detection of And-1 protein expression in A549 cells; assay type: cell-based; set-up: endogenous in cells; host or cells: A549; settings: A549 cell line, 5 μM, 24 hours
T1 sequence (O75717 1-1129): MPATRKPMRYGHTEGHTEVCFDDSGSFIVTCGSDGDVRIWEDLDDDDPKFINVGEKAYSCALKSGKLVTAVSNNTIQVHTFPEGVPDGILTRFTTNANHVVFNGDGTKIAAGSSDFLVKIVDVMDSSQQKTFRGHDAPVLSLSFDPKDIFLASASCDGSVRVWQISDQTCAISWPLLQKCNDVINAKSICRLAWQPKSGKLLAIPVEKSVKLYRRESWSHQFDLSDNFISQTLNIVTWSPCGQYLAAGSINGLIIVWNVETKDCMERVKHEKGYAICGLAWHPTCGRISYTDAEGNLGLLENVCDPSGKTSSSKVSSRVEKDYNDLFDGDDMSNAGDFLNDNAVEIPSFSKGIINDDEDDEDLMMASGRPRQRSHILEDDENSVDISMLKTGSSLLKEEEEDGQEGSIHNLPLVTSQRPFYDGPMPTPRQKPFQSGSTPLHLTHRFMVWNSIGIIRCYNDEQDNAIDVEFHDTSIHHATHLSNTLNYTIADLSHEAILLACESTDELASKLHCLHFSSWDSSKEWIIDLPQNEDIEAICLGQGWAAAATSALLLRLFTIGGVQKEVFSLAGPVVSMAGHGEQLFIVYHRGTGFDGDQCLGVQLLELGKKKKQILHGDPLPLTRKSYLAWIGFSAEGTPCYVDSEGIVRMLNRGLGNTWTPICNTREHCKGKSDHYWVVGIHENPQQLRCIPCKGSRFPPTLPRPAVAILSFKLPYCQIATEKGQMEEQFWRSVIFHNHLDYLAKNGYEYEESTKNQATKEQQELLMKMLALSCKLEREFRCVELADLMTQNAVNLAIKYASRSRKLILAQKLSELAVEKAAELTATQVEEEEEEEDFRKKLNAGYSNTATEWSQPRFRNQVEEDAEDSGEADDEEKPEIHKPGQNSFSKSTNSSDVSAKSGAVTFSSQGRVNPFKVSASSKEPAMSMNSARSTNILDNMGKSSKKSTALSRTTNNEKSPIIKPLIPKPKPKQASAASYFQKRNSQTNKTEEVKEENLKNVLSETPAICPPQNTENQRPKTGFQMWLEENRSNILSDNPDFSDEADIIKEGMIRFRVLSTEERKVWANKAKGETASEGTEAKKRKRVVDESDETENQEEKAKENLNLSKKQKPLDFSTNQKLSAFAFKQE
Experimental: Select the A549 cells in good growth condition and inoculate them in a 60 mm petri dish at a density of 500,000. After culturing in a constant temperature incubator at 37° C. and 5% CO2 for 24 hours, add different compounds of the same concentration (5 μM) and continue culturing for 24 hours before collecting Cells were subjected to Western blotting experiments to compare with untreated cells to detect the inhibitory effect of each compound on the expression of And-1 protein.

[2] = target: T1, And-1; assay: inhibition of And-1 in OV90 CR cells; assay type: cell-based; set-up: endogenous in cells; settings: inhibition of And-1, OV90 CR cells
[3] = tested on: SREBP target gene SCD-1; assay: RT-PCR detection of SCD-1 gene expression in AN3CA cells; assay type: cell-based, human; settings: 10 μM
Experimental: • 1. Experimental reagent • 2. The experimental steps are as follows: • 2.1 AN3CA cell recovery and culture (10% serum 1% double antibody in MEM medium); • 2.2 passages (passage at a ratio of 1:2); • 2.3 Place 6 well plates when the cell status is good, 5×10^5Well, culture overnight; • 2.4 adding medicine: diluting the final concentration of the drug with a culture medium to 10 μM, 2 mL/well; • 2.5 adding medicine for 48 h, and then extracting RNA; • 2.5.1 removing the culture medium, adding 0.5 mL/hole Trizol to lyse the cells, repeatedly blowing and beating the cells by a pipette after 5 min, completely lysing the cells, transferring the cells into a 1.5 mL EP tube without RNase, and standing the tube for 5 min; • 2.5.2 adding 200 µl chloroform, shaking rapidly, mixing, standing for 10 min 12000 rpm/15 min; • 2.5.3 carefully taking out the supernatant, transferring the supernatant into an EP tube, adding isopropanol with the same volume, reversing, uniformly mixing, standing for 10 min, and centrifuging at 12000 rpm/10 min; • 2.5.4 removing the supernatant, adding 1 mL of 75% ethanol for washing, centrifuging at 8000 rpm/5 min once, carefully removing the supernatant, standing at room temperature for 10 min to volatilize the ethanol, and dissolving the precipitate with 40 μL of DEPC treated water when the precipitate becomes transparent; • 2.5.5 RNA concentration was measured and DEPC-treated water was diluted to 100 ng/μL • 2.6 reverse transcription: Kit Takara (PrimeScript RT reagent Kit (Perfect Real Time)

[4] = target: T1, And-1; assay: inhibition of And-1 in IGROV1 CR cells; assay type: cell-based; set-up: endogenous in cells; host or cells: IGROV1 CR; settings: inhibition of And-1, IGROV1 CR cells

For `OB1OCc2cc(/C=C/c3ccc(Cl)c(Cl)c3)ccc21` [III, (E)-5-(3,4-dichlorostyryl)benzo[c][1,2]oxaborol-1(3H)-ol], the “expression of And-1 protein (Western blot)” value [1] was “significantly inhibit”, the IC50 [2] was 13.3 µM and the “Relative mRNA expression of SCD-1” value ([3]; AN3CA cells, 48 h, DMSO = 1) was 0.64. The “inhibitory effect on Srebp” value ([3]; human endometrial cancer AN3CA cells) was “high inhibitory effect” and the IC50 [4] was 7.8 µM and 7.83 µM.

From patent publication US12258360B2, “Compositions and methods for treatment of anticancer-drug resistant cancers” (THE GEORGE WASHINGTON UNIVERSITY, priority 2020, dated 2025)
